Laboratory results reported in patent publication US4988697A, “Fungicidal compositions and method” (Merck & Co., Inc., priority 1989, dated 1991).

Columns and labels:
Format in all cases: cell-based
C. miyabeamis = experiment: MIC against fungal panel, C. miyabeamis; conditions: read-out: MIC, Ketoconazole Alone
Method: In a manner similar to that above described for effect against Candida albicans the synergistic effect of the combination of the β-lactone compound and ketoconazole against a fungal panel was determined by plating on potato dextrose agar.
(§1) First the MIC for the β-lactone compound and the MIC for the ketoconazole were determined against an array of organisms. Thereafter, the effects on the MIC of adding 0.031, 0.125, 0.5 and 2 μg/ml of ketoconazole were determined.

U. zeae = experiment: MIC against fungal panel, U. zeae; conditions: read-out: MIC, Ketoconazole Alone
Method: as §1

C. albicans (Y1750) = experiment: MIC against fungal panel, C. albicans (Y1750); conditions: Candida albicans, read-out: MIC, Ketoconazole Alone
Method: as §1

A. niger = experiment: MIC against fungal panel, A. niger; conditions: Aspergillus niger, read-out: MIC, Ketoconazole Alone
Method: as §1

Candida albicans = experiment: Synergistic and fungicidal effect on exponential phase cultures (CFU/ml over time); conditions: ketoconazole 1 μg/ml
Method: Synergistic and fungicidal effects were determined by treating exponential phase Candida albicans cultures with β-Lactone at MIC and MFC levels and ketoconazole at 0.1 μg/ml or a 1 μg/ml alone or in combination. Exponential phase cultures were prepared by diluting an overnight culture 1:50 or 1:1000 in YNB/G. After incubating the diluted cells 7 or 17 hrs. at 37° C., the exponential phase cells were diluted in YNB/G to A600 =0.0004 u/ml to obtain 3000 cfu/ml.
10 microliters (μl) of β-lactone compound or ketoconazole prepared in DMSO was added to 1 ml of diluted exponential phase cells. The tubes were incubated at 37° C. at 250 rpm for 27 hours. Periodically, aliquots were diluted in 0.9% saline and plated on Sabouraud dextrose agar plates to determine the number of cfu/ml.

F. oxysporium = experiment: MIC against fungal panel, F. oxysporium; conditions: read-out: MIC, Ketoconazole Alone
Method: as §1

C. neoformans = experiment: MIC against fungal panel, C. neoformans; conditions: Cryptococcus neoformans, read-out: MIC, Ketoconazole Alone
Method: as §1

C. albicans (Y1055) = experiment: MIC against fungal panel, C. albicans (Y1055); conditions: Candida albicans, read-out: MIC, Ketoconazole Alone
Method: as §1

CC(=O)N1CCN(c2ccc(OC[C@H]3CO[C@](Cn4ccnc4)(c4ccc(Cl)cc4Cl)O3)cc2)CC1 (relative stereo) [Ketoconazole, cis-1-acetyl-4-[4-[[2-(2,4-dichlorophenyl)-2-(1H-imidazole-1-ylmethyl)-1,3-dioxolan-4-yl]methoxy]-phenyl]piperazine]
MIC (C. miyabeamis): 2 µg/mL
MIC (U. zeae): > 2 µg/mL
MIC (C. albicans (Y1750)): > 2 µg/mL
MIC (A. niger): > 2 µg/mL
Fungal Growth (Candida albicans; Table 1, 0 hours): 2.95 × 10^3 CFU/ML
Fungal Growth (Candida albicans; Table 1, 2 hours, β-lactone 2.5 μg/ml, alone or combined): 5.1 × 10^3 CFU/ML
Fungal Growth (Candida albicans; Table 1, 4.5 hours, β-lactone 2.5 μg/ml, alone or combined): 1.09 × 10^4 CFU/ML
Fungal Growth (Candida albicans; Table 1, 7 hours, β-lactone 2.5 μg/ml, alone or combined): 2.40 × 10^4 CFU/ML
Fungal Growth (Candida albicans; Table 1, 11 hours, β-lactone 2.5 μg/ml, alone or combined): 6.90 × 10^4 CFU/ML
Fungal Growth (Candida albicans; Table 1, 17 hours, β-lactone 2.5 μg/ml, alone or combined): 1.36 × 10^5 CFU/ML
Fungal Growth (Candida albicans; Table 1, 22 hours, β-lactone 2.5 μg/ml, alone or combined): 3.30 × 10^5 CFU/ML
Fungal Growth (Candida albicans; Table 1, 27 hours, β-lactone 2.5 μg/ml, alone or combined): 7.20 × 10^5 CFU/ML
Fungal Growth (Candida albicans; Table 2, 0 hours): 2.95 × 10^3 CFU/ML
Fungal Growth (Candida albicans; Table 2, 2 hours, β-lactone 10 μg/ml, alone or combined): 5.1 × 10^3 CFU/ML
Fungal Growth (Candida albicans; Table 2, 4.5 hours, β-lactone 10 μg/ml, alone or combined): 1.09 × 10^4 CFU/ML
Fungal Growth (Candida albicans; Table 2, 7 hours, β-lactone 10 μg/ml, alone or combined): 2.40 × 10^4 CFU/ML
Fungal Growth (Candida albicans; Table 2, 11 hours, β-lactone 10 μg/ml, alone or combined): 6.90 × 10^4 CFU/ML
Fungal Growth (Candida albicans; Table 2, 17 hours, β-lactone 10 μg/ml, alone or combined): 1.36 × 10^5 CFU/ML
Fungal Growth (Candida albicans; Table 2, 22 hours, β-lactone 10 μg/ml, alone or combined): 3.30 × 10^5 CFU/ML
Fungal Growth (Candida albicans; Table 2, 27 hours, β-lactone 10 μg/ml, alone or combined): 7.20 × 10^5 CFU/ML
MIC (F. oxysporium): > 2 µg/mL
MIC (C. neoformans): > 2 µg/mL
MIC (C. albicans (Y1055)): > 2 µg/mL
